Measured values: PMC4965013, “Open Source Drug Discovery with the Malaria Box Compound Collection for Neglected Diseases and Beyond” (PLoS Pathogens, 2016)
Read-outs that look alike come from different tables or passages of the source.

Key:
Trypanosoma cruzi = experiment: T. cruzi Scynexis; assay type: cell-based
T. b. brucei Squib 427 = conditions: ref [84]; read-out: Trypansoma brucei brucei Squib 427 IC50; cited from earlier work
[1] = test system: P. falciparum Stage V male and female gametocytes; set-up: method as in ref [74] (a number printed in a supplementary file, which may have a reference list of its own: not looked up in the article's list); conditions: 1µM; ref [74]; cited from earlier work
[2] = test system: P. falciparum NF54Pfs16 gametocytes stage I-III; conditions: ref [61], cited from earlier work
T. equi (USDA strain) = experiment: T. equi fluorescence-based growth assay; assay type: cell-based; conditions: Theileria equi
[3] = Kinetic Solubility at pH 7.4 (LC/CLND); assay type: physicochemical; conditions: pH 7.4, aqueous buffer, kinetic from dmso stock; read-out: Kinetic Solubility >20µM at pH 7.4
Experimental: (§1) Columns GD-GJ: Wuxi Inc. data for MMV (data presented first in this paper) PK/DMPK Parameters: Fasted animals (Male CD-1 mouse, 7-9 weeks age, 30±10 g, n=3) obtained from an approved vendor (SLAC Laboratory Animal Co. Ltd., Shanghai, China or Sino-British SIPPR/BK Laboratory Animal Co. Ltd Shanghai, China) were administered with a single oral dose (140 μmol/kg) using DMSO: 1% HPMC (5:95) as a vehicle. Blood sampling was performed via the submandibular or saphenous vein (t=0.083, 0.25, 1, 2, 4, 6 and 9 h) and transferred into microcentrifuge tubes containing Sodium Heparin (1,000 IU/ml) as anti-coagulant placed on wet ice until processed for plasma by centrifugation at approximately 4°C, 3000×g for 15 min. Plasma samples were stored in polypropylene tubes, quick frozen over dry ice and kept at -70±10°C until LC/MS/MS analysis. LC/MS/MS methods for the quantitative determination compounds plasma levels were developed with an internal standard. […] (Phoenix WinNonlin, version 6.2.1, Pharsight, Mountain View, CA) and expressed as Cmax & AUC0-last. […] AUC0-last is the area under the curve expressed as >12 h*μM (Yes or No). Plasma protein binding assay (PPB) (CD-1 mouse and human) expressed as <95% bound, >95% bound, or >99% bound. Kinetic Solubility at pH 7.4 was determined by liquid chromatography/chemiluminescence nitrogen detection (LC/CLND) and was scored as greater than 20µM (Yes or No). hERG inhibition was measured at 11µM by the QPatch- HT system and is expressed as “Yes” if greater than 45% inhibited at 11µM and “No” if less than or equal to 45% inhibited at 11µM. As part of the Drug-Drug Interaction studies (DDI issues), 5 human and 1 mouse CYP isoforms (1A2, 2C9, 2C19, 2D6, 3A4-M, 3A4-T) were tested for inhibition assay at 10 µM. […] Otherwise DDI issues were scored as “No”. Positive and negative controls were run for each assay (Table 1).

[4] = test system: Leishmania infantum MHOM/MA/BE/67; conditions: ref [84]; read-out: Leishmania infantum EC50 intracellular amastigotes in primary macrophages; cited from earlier work
[5] = test system: HIV-1 JR-FL or HIV-1 NL4-3 pseudoviruses; experiment: HIV-1 pseudovirus infection luciferase; assay type: cell-based; conditions: Human immunodeficiency virus 1, HXB2 / NL43, read-out: HIV HXB2 % inhibition rep2 in U87 Luc
P. falciparum HB3 = experiment: Stage-specificity / mitochondrial integrity image assay Ayong; assay type: cell-based; conditions: 10µM
[6] = Plasma protein binding human; assay type: in vitro ADME
Experimental: as §1

[7] = Plasma protein binding mouse; assay type: in vitro ADME; conditions: CD-1, mouse
Experimental: as §1

[8] = test system: S. mansoni newly transformed schistosomula (NTS); set-up: method as in ref [91] (a number printed in a supplementary file, which may have a reference list of its own: not looked up in the article's list); conditions: ref [91]; read-out: Schistosoma mansoni newly transformed schistosomula EC50 J. Keiser; cited from earlier work
[9] = test system: B. bigemina (Argentine strain); experiment: B. bigemina fluorescence-based growth assay; assay type: cell-based; conditions: Babesia bigemina
[10] = test system: U87-CD4-CCR5 or U87-CD4-CXCR4 cells; experiment: U87 cell viability MTT; assay type: cell-based; conditions: for U87 % cell death rep3 (X4 P24 Washout expt): 5uM; for U87 % Cell Death rep3 (R5 P24 Washout expt) / U87 % cell death rep3 (R5 P24 NO Washout expt) / U87 % cell death rep3 (X4 P24 NO Washout expt) / U87 Luc % cell death rep1 / U87 Luc % cell death rep2: 5µM
[11] = test system: Entamoeba histolytica Rahman; set-up: method as in ref [87] (a number printed in a supplementary file, which may have a reference list of its own: not looked up in the article's list); conditions: read-out: Entamoeba histolytica Rahman EC50 (30 means >30); ref [87]; cited from earlier work
[12] = test system: P. falciparum in vitro translation; set-up: method as in ref [19] (a number printed in a supplementary file, which may have a reference list of its own: not looked up in the article's list); conditions: 1 µM; ref [19]; cited from earlier work
[13] = test system: HIV-1 JR-FL or HIV-1 NL4-3 viruses; experiment: HIV-1 viral production p24 ELISA; assay type: cell-based
Experimental: Columns FK-GB, Moore group (data presented first in this paper). HIV and HIV-producing cell lines, toxicity and viral suppression. […] MMV compounds were incubated with HIV-1 JR-FL or HIV-1 NL4-3 pseudoviruses and U87-CD4-CCR5 or U87-CD4-CXCR4 cells (obtained through the NIH AIDS Reagent Program, Division of AIDS, NIAID, NIH: U87 CD4+CCR5+ Cells from Dr. HongKui Deng and Dr. Dan R. Littman) respectively for 3 days. Cells were assayed for infection by luciferase production (Bright-Glo Luciferase Substrate, Promega) and cell viability by MTT assay. […] MMV compounds were next incubated with HIV-1 JR-FL or HIV-1 NL4-3 viruses and U87-CD4-CCR5 or U87-CD4-CXCR4 cells respectively for 7 days. Cell supernatants were assayed for viral production by p24 ELISA [153] and cell viability by MTT assay. […] DMSO (5%) was completely toxic to all cells (based on visual inspection) and served as the positive control for MTT assays.

[14] = Human immunodeficiency virus 1, NL43, read-out: HIV R5 % inhibition rep3 in U87 (P24 Washout)
[15] = Human immunodeficiency virus 1, NL43, read-out: HIV X4 % inhibition rep3 in U87 (P24 NO Washout)
[16] = Human immunodeficiency virus 1, NL43, read-out: HIV X4 %inhibition rep3 in U87 (P24 Washout)

Row | Compound | inhibition at 5 µM (Trypanosoma cruzi) | IC50 (T. b. brucei Squib 427) | Male gametocyte Stage V % inhibition of gamete formation [1] | female gametocyte Stage V % inhibition of gamete formation [1] | gametocyte early stage (I-III) luciferase % inhibition ([2]; 0.5µM) | gametocyte early stage (I-III) luciferase % inhibition ([2]; 2.5µM) | gametocyte early stage (I-III) luciferase % inhibition ([2]; 5µM) | EC50 (T. equi (USDA strain)) | solubility kinetic [3] | EC50 [4] | inhibition at 5 µM [5] | P. falciparum HB3 late ring (LR) stage activity (P. falciparum HB3) | fraction unbound [6] | fraction unbound [7] | EC50 [8] | EC50 [9] | U87 % cell death rep3 (X4 P24 Washout expt) [10] | U87 % Cell Death rep3 (R5 P24 Washout expt) [10] | U87 % cell death rep3 (R5 P24 NO Washout expt) [10] | U87 % cell death rep3 (X4 P24 NO Washout expt) [10] | other results
1 | CCN1CCN(c2cc(C)c3cc(NC(=O)c4ccc(OC)c(OC)c4)ccc3n2)CC1 [MMV019074] | 13% | 4.78 µM | -3.72% | -9% | -13% | -14% | -6.56% | 0.33 µM | < 20 µM | 6.35 µM | -69% | ✖ | > 0.05 | < 0.05 | > 33.3 µM | 7.92 µM | -32% | 7.48% | 17% | 3.26% | P. falciparum HB3 early ring (ER) stage activity (P. falciparum HB3): ✖; U87 Luc % cell death rep1 [10]: 0.063%; U87 Luc % cell death rep2 [10]: 10%; EC50 [11]: > 30 µM; Translation Inhibitors (nl = 1.0, in vitro translation with P. falciparum lysate) [12]: 0.94; inhibition at 5 µM [13, 14]: 7%; inhibition at 5 µM [13, 15]: 14%; inhibition at 5 µM [13, 16]: 6.64%
2 | COc1ccc(C(=O)Nc2ccc3nc(N4CCCCC4)cc(C)c3c2)cc1OC [MMV019758] | 71% | 16.2 µM | 10% | -48% | -7% | -13% | -5.6% | 6.99 µM | < 20 µM | 16.2 µM | -36% | ✖ | < 0.01 | < 0.01 | > 33.3 µM | 0.46 µM | -25% | 3.19% | 39% | -2.11% | U87 Luc % cell death rep1 [10]: -1.12%; U87 Luc % cell death rep2 [10]: 4.5%; EC50 [11]: > 30 µM; Translation Inhibitors (nl = 1.0, in vitro translation with P. falciparum lysate) [12]: 0.98; inhibition at 5 µM ([13]; Human immunodeficiency virus 1, NL43, read-out: HIV R5 % inhibition rep3 in U87 (P24 NO Washout)): 31%; inhibition at 5 µM [13, 14]: 83%; inhibition at 5 µM [13, 15]: 68%; inhibition at 5 µM [13, 16]: 24%
